Test results as given in US20230372361A1, “USE OF OXYGENATED CHOLESTEROL SULFATES FOR TREATING INFLAMMATORY CONDITIONS” (Durect Corporation, priority 2020, published 2023).

Columns and labels:
Huh-7 cells [1] = assay: Real-time RT-PCR of key gene expression; format: cell-based, human; conditions: 6.25-50 μM, 1-8 hours
Description: FIGS. 3A-3D. Expression of key genes related to signaling pathways. […] Key Genes and their targeting genes expression were determined by RT-PCR analysis. […] Each sample, 2 was sent to […], Inc. (Hopkinton, MA) for analysis of global methylation bisulfite sequencing. The same samples, 6 μg, were sent to Novogene Co., Ltd (Tianjin, China) for analysis of whole genome bisulfite sequencing (WGBS). Total RNA was isolated using the Promega SV total RNA isolation system (Madison, WI) with DNase treatment. […] Real-time RT-PCR was performed using SYBR Green as the indicator on ABI 7500 Fast Real-Time PCR System (Applied Biosystems, Foster City, CA). Amplifications of β-actin or GAPDH were used as internal controls. Relative messenger RNA (mRNA) expression was quantified with the comparative cycle threshold (Ct) method using the primer set shown in Table 1.1 and was expressed as 2^-ΔΔct.

[2] = Excretion mass balance, single intravenous dose; format: in vivo, male Sprague Dawley rats; conditions: iv 10 mg/kg; over 168 hours
Description: Nine male Sprague Dawley rats (Group 1) were designated for the pharmacokinetic phase, 3 male Sprague Dawley rats (Group 2) for the excretion mass balance phase, and 7 male Sprague Dawley rats (Group 3) and 9 male Long Evans rats (Group 4) for the tissue distribution phase. All animals received a single intravenous dose of [^14C]-25HC3S at 10 mg/kg and a target radioactivity of 225 μCi/kg. Blood samples were collected from all Group 1 animals at approximately 0.083, 0.25, 0.5, 1, 2, 4, 8, 12, 24, 48, and 72 hours post-dose. Urine and feces were collected from all Group 2 animals periodically through 168 hours post-dose. […] Following blood collection, animals were euthanized by CO2 inhalation and carcasses frozen in a dry ice/hexane bath for processing by quantitative whole body autoradiography. Whole blood, plasma, urine, feces, cage rinse, and cage wash were analyzed for total radioactivity by liquid scintillation counting.

Huh-7 cells [3] = assay: Whole genome bisulfite sequencing (WGBS), promoter 5mCpG demethylation; format: cell-based, human; conditions: 25 μM, 4 hours
Description: Huh-7 and HepG-2 cells were cultured in DMEM media supplemented with 10% heat-inactivated fetal bovine serum (FBS), high glucose (HG, 4.5 g/L) at 37° C. in a humidified atmosphere of 5% CO2.
Each sample, 2 was sent to EpigenDx, Inc. (Hopkinton, MA) for analysis of global methylation bisulfite sequencing. The same samples, 6 μg, were sent to Novogene Co., Ltd (Tianjin, China) for analysis of whole genome bisulfite sequencing (WGBS). Total RNA was isolated using the Promega SV total RNA isolation system (Madison, WI) with DNase treatment. Each sample, 2 was used for the first-strand cDNA synthesis as recommended by the manufacturer (Invitrogen, Carlsbad, CA). […] Relative messenger RNA (mRNA) expression was quantified with the comparative cycle threshold (Ct) method using the primer set shown in Table 1.1 and was expressed as 2^−ΔΔct.
Analysis of Whole Human Genome Bisulfite Sequencing (WGBS) Each sample, 5.2 μg of genomic DNA spiked with 26 ng lambda DNA, was fragmented by sonication to 200-300 bp with Covaris S220, followed by end repair and adenylation. […] These DNA fragments were treated twice with bisulfite using EZ DNA Methylation-Gold™ Kit (Zymo Research) before the resulting single-strand DNA fragments were PCR amplified using KAPA HiFi Hot Start Uracil and Ready Mix (2×). […]

dose recovered in urine, feces, and cage rinse [2]: approximately 100.2 % of the dose
recovered radioactivity in feces [2]: 83.0%
Structure (SMILES): C[C@H](CCCC(C)(C)O)[C@H]1CC[C@H]2[C@@H]3CC=C4C[C@@H](OS(=O)(=O)O)CC[C@]4(C)[C@H]3CC[C@]12C [25HC3S, 25-hydroxycholesterol-3-sulfate]
decrease of FAS gene expression (Huh-7 cells [1]): ~90%
decrease of HMGR gene expression (Huh-7 cells [1]): ~90%
increase of CREB5 expression (Huh-7 cells [1]): up to 20 fold
increase of DUSP8 expression (Huh-7 cells [1]): 5 fold
increase of PGC1A expression (Huh-7 cells [1]): 12 fold
hypomethylation levels across genomic functional regions versus vehicle (Huh-7 cells [3]): significantly higher hypomethylation levels than vehicle
